Here are results for one molecule from PMC7828731, “Anti-Aging Potential of Extracts from Washingtonia filifera Seeds” (Plants, 2021).

≈ marks a conversion by molar mass, not a printed value.

This experiment concerns the target T1, Collagenase from Clostridium histolyticum.
T1 construct: gene colG; commercial native collagenase (Sigma)
Put plainly: absorbance at […] nm, FALGPA hydrolysis. It is filed as biochemical, Hathewaya histolytica. The following applies: FALGPA 0.8 mM; 0.05 M Tricine, pH 7.5, 0.4 M NaCl, 0.01 M CaCl2; 15 min preincubation.

For the molecule `O=C(O[C@@H]1Cc2c(O)cc(O)cc2O[C@@H]1c1cc(O)c(O)c(O)c1)c1cc(O)c(O)c(O)c1` [Epigallocatechin gallate], the “IC50 (μg/mL) / Collagenase *” value is 120.8 ± 6.22 µg/mL (≈ 264 µM).
